Literature values in US11725025B2, “Progesterone phosphate analogs and uses related thereto” (EMORY UNIVERSITY, priority 2013, dated 2023).

Assays:
[1] = test system: moderate to severe TBI patients; conditions: 3 days of intravenous progesterone treatment; 100 moderate to severe TBI patients

Structure (SMILES): CC(=O)[C@H]1CC[C@H]2[C@@H]3CCC4=CC(=O)CC[C@]4(C)[C@H]3CC[C@]12C [progesterone]
- solubility in aqueous-based formulations: insoluble
- functional outcomes at 30 days post-injury [1]: significantly improved
- reduction of mortality [1]: over 60%
